The record followed here is the supplement of paper PMC10307832.

Common to all, as to experiment: relative viability (nuclei count vs DMSO), 5 days (fraction); higher = more cells survive
Compound in assay [1]: CC(C)C[C@H](NC(=O)[C@H](CCc1ccccc1)NC(=O)CN1CCOCC1)C(=O)N[C@@H](Cc1ccccc1)C(=O)N[C@@H](CC(C)C)C(=O)[C@@]1(C)CO1 [Carfilzomib] + N=C(N)NC(=N)NCCc1ccccc1 [Phenformin] (partner 250 µM)
In outline: (§1)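 Cells from lung cancer lines were seeded into 1536-well plates and, one day later, dosed by pin tool. Treatments were either a single drug or a fixed dose of an anchor drug with five library-drug doses (not always all listed) in √10 steps. After 5 days, nuclei were stained in a one-step fixation (final 0.05% Triton X-100, 1% formaldehyde, 1 ug/ml Hoechst) and counted on 4× images, and relative viability is the treated-to-vehicle nuclei ratio, as the median of duplicate plates.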

Compound in assay [2]: C[C@@H](Oc1cc(-c2cnn(C3CCNCC3)c2)cnc1N)c1c(Cl)ccc(F)c1Cl [Crizotinib] + CC1(C)CCC(c2ccc(Cl)cc2)=C(CN2CCN(c3ccc(C(=O)NS(=O)(=O)c4ccc(N[C@H](CCN5CCOCC5)CSc5ccccc5)c(S(=O)(=O)C(F)(F)F)c4)cc3)CC2)C1 [Navitoclax] (partner 0.5 µM)
The procedure, abridged:
as §1

Compound in assay [3]: O=C(c1cc(Cc2n[nH]c(=O)c3ccccc23)ccc1F)N1CCN(C(=O)C2CC2)CC1 [Olaparib] + Nc1nc2[nH]cc(CCc3ccc(C(=O)N[C@@H](CCC(=O)O)C(=O)O)cc3)c2c(=O)[nH]1 [Pemetrexed] (partner 0.2 µM)
In outline:
as §1

Compound in assay [4]: O=C(c1cc(Cc2n[nH]c(=O)c3ccccc23)ccc1F)N1CCN(C(=O)C2CC2)CC1 [Olaparib] + Cc1nc(NC(=O)N2CCC[C@H]2C(N)=O)sc1-c1ccnc(C(C)(C)C(F)(F)F)c1 [Alpelisib] (partner 2 µM)
In outline:
as §1

Compound in assay [5]: CC(C)C[C@H](NC(=O)[C@H](CCc1ccccc1)NC(=O)CN1CCOCC1)C(=O)N[C@@H](Cc1ccccc1)C(=O)N[C@@H](CC(C)C)C(=O)[C@@]1(C)CO1 [Carfilzomib] + COc1cccc2cc(-c3nc([C@H]4CC[C@H](C(=O)O)CC4)n4ncnc(N)c34)[nH]c12 [OSI-027] (partner 0.5 µM)
The procedure, abridged: as §1

With NCI-H1793, the relative viability is 0.404 in assay [1] (first compound 0.003162 µM); 0.296 in assay [1] (first compound 0.01 µM); 0.407 in assay [1] (first compound 0.03162 µM); 0.261 in assay [1] (first compound 0.1 µM); 0.362 in assay [2] (first compound 0.01 µM); 0.486 in assay [2] (first compound 0.03162 µM). For the same cell line, the relative viability in assay [2] (first compound 0.1 µM) turned out to be 0.384; in assay [2] (first compound 1 µM) it was 0.529; in assay [3] (first compound 0.08 µM), 0.647; in assay [3] (first compound 0.253 µM), 0.652; in assay [3] (first compound 2.53 µM), 0.841; in assay [3] (first compound 8 µM), 0.79. Moreover, the relative viability in assay [4] (first compound 0.08 µM) was found to be 0.683; in assay [4] (first compound 0.253 µM), 0.664; in assay [4] (first compound 2.53 µM), 0.768; in assay [4] (first compound 8 µM), 0.601; in assay [5] (first compound 0.003162 µM), 0.323; in assay [5] (first compound 0.01 µM), 0.369. Moreover, the relative viability in assay [5] (first compound 0.03162 µM) was found to be 0.269; in assay [5] (first compound 0.1 µM) it was 0.133.
